Reference: patent US7579152B2, “SENP1 as a marker of cancer development and target for cancer therapy” (Board of Regents, the University of Texas System, priority 2004, dated 2009)

Assays:
cyclin D1 promoter = experiment: Cyclin D1 promoter CD1 (-1745/+134) luciferase reporter assay in PC-3 cells; format: cell-based; settings: TSA for 12 hrs at 24 hr after transfection
Procedure: At 24 hr after transfection, cells were treated different dosage TSA as indicated for 12 hrs and then luciferase activity were determined. All luciferase activity was normalized to individually determined β-gal activity. […] After 48 hr of transfection, the Luciferase activity was measured. All luciferase activity was normalized to individually determined β-gal activity. […] All luciferase activity was normalized to individually determined β-gal activity.
EGFP-SENP1 and EGFP-SENP1mutant (C603A) were prepared by standard cloning and PCR based mutagenesis. CD1 (−1745/+134), CD1 (−963/+134), CD1 (−66/+134), and, CD1 (−66/+134) mutant-driven luciferase plasmids were prepared by PCR cloning strategy (Albanese et al., 1995; Tetsu et al., 1999). […]
To further confirm the role of SENP1 in cyclin D1 transcription, we performed a cyclin D1 promoter-driven luciferase reporter assay (FIG. 16A) as described by Cheng et al, 2004. CD1 (−1745/+134), which corresponded to the original fragment of cyclin D1 5′ sequence cloned from the PRAD1 breakpoint, was transfected into PC-3 cells and its response to SENP1 was measured.

SENP1 [1] = experiment: SENP1 mRNA levels by quantitative real-time PCR in LNCaP cells after androgen/cytokine treatment; format: cell-based, human; settings: for SENP1 expression enhanced (mRNA, QRT-PCR) / Increase in SENP1 levels: R1881 20 nM; for Increase in SENP1 levels: IL-6 25 ng/mL, or both; for SENP1 levels on cytokine treatment: 25 ng/mL, 24 or 48 hr
Procedure: (§1) LNCaP, PC-3, and DU145 cells were maintained in RPMI 1640 media containing 10% fetal bovine serum and 1% penicillin/streptomycin. The RWPE2 were maintained in Keratinocyte-Serum Free medium supplemented with 5 ng/ml human recombinant EGF and 0.05 mg/ml bovine pituitary extract. For hormone/cytokine treatment, the maintenance media was replaced with phenol red-free RPMI 1640 media containing 10% charcoal-stripped bovine serum and 1% penicillin/streptomycin.
(§2) Cells (LNCaP and/or PC-3) were prepared for RNA isolation using the RNA-Bee Reagent (Tel-Test Inc, Friendswood, Tex.) according to manufacture's instructions with stock samples diluted to the appropriate concentrations with the DEPC-treated water.
(§3) The TaqMan Master Mix Reagents (Applied Biosystems, Branchburg, N.J.) were utilized for the quantitative real-time PCR (QRT-PCR) reaction. Primers for either SENP1 ([…]; forward: SEQ. ID. NO. 5: 5′-TTGGCCAGAGTGCAAATGG-3′ and reverse: SEQ. ID. NO. 6 5′-[…]-3′) or the housekeeping 18S rRNA were utilized. SENP1 RNA levels were calculated using the TaqMan ABI PRISM 7900 Sequence Detector System (PE Applied Biosystems).

SENP1 [2] = experiment: SENP1 mRNA levels by quantitative real-time PCR in PC-3 cells after androgen/cytokine treatment; format: cell-based; settings: 24 hr
Procedure: as §1, §2, §3

PSA = PSA ELISA assay, secreted PSA of LNCaP cells; format: cell-based, human; settings: for Increase in PSA levels as compared to control: LNCaP, R1881 20 nM, IL-6 25 ng/mL, or both, 24 hr
Procedure: as §1
(§4) PC-3 and LNCaP cells were grown in 24-well plates. Cells were transfected with the oligos (40 pmol/well) or siRNA plasmid (200 ng) for one (for PC-3) or three times within 12 hour intervals (for LNcaP) using lipfectamine 2000 (Invitrogen). PSA ELISA or Luciferase assays were used for analysis.
For assessment of PSA, the PSA ELISA assay kit was purchased from MP Biomedicals (Orangeburg, N.Y.) and performed according to manufacturer's instruction. Using a microtiter plate reader, the ng/mL concentration of the cell samples was calculated from the standard curve.

AR = experiment: ARE-luciferase reporter assay of AR-dependent transcription with co-transfected SENP1; format: cell-based; settings: PC-3 cells, in the presence of bicalutamide
Procedure: as §4
Luciferase reporter gene assays were used to examine whether SENP1 could affect AR-dependent transcription. […] This effect was dependent on the presence of AR ligand, R1881. […] Even at very low levels of cotransfected DNA, SENP1 induced AR transactivation. […] As the antagonists of androgen can also bind to the AR, the inventors tested whether SENP1 could act on antagonist-bound AR. […] SENP1 and SENP1 mutant were expressed at similar levels (FIG. 9E) and SENP1 and SENP2 were also expressed similarly (FIG. 9F).

CC(/C=C/C(=O)NO)=C\[C@@H](C)C(=O)c1ccc(N(C)C)cc1 [TSA]
SENP1 induction of cyclin D1 promoter activity (cyclin D1 promoter): decreased by TSA in a dose-dependent manner

C[C@]1(O)CC[C@H]2[C@@H]3CCC4=CC(=O)CCC4=C3C=C[C@@]21C [R1881]
SENP1 levels with increasing R1881 concentration (SENP1 [1]; 24 hr): increasing R1881 concentration elevates SENP1 levels | SENP1 expression enhanced (mRNA, QRT-PCR) (SENP1 [1]; 24 hr): 5 fold | SENP1 expression enhanced (mRNA, QRT-PCR) (SENP1 [1]; 48 hr): 7 fold | Increase in SENP1 levels (SENP1 [1]; 24 hr): ~5 fold | SENP1 expression on R1881 treatment (SENP1 [2]; R1881 30 nM): unaltered | Concentration of secreted PSA protein in the cultural medium (PSA; LNCaP cells, R1881): increased | Increase in PSA levels as compared to control (PSA): 5.6 fold

TNF-α
SENP1 levels on cytokine treatment (SENP1 [1]): not

IL-6: cytokine that promotes activation of AR-dependent transcription via MAPK and JAK/STAT pathways
SENP1 levels on cytokine treatment (SENP1 [1]): enhanced | Increase in SENP1 levels (SENP1 [1]; 24 hr): ~5 fold | SENP1 levels on cytokine treatment (SENP1 [2]; IL-6 25 ng/mL): unchanged | Increase in PSA levels as compared to control (PSA): 2.2 fold

CC(O)(CS(=O)(=O)c1ccc(F)cc1)C(=O)Nc1ccc(C#N)c(C(F)(F)F)c1 (centres unmarked) [bicalutamide]
Effect of SENP1 on AR-dependent transcription with antagonist-bound AR (AR): no effect
